Seven molecules from ChEMBL document CHEMBL4184117, “Design, synthesis and anti-malarial activities of synthetic analogs of biselyngbyolide B, a Ca2+ pump inhibitor from marine cyanobacteria” (Bioorg Med Chem Lett, 2018) can be followed below.

pIC50, pKi: −log10 of the molar value. Some results are limits rather than exact numbers.

Experiment [1] addresses Sarcoplasmic/endoplasmic reticulum calcium ATPase 1 (Homo sapiens, UniProt O14983). The experiment can be described thus: Inhibition of SERCA1a (unknown origin) ATPase activity.
In another experiment the test system is HeLa. The experiment can be described thus: Growth inhibition of human HeLa cells after 72 hrs by MTT assay. Format: cell-based.
Another experiment deals with MRC5. Put plainly: Growth inhibition of human MRC5 cells after 7 days by MTT assay. Format: cell-based. Particulars: MRC5, 168 h. In general terms: Tetrazolium dyes change colour on reduction, which living cells bring about.
In experiment [2] the test system is Plasmodium falciparum. Put plainly: Antimalarial activity against chloroquine-sensitive Plasmodium falciparum FCR3 infected in human type A+ erythrocytes assessed as growth inhibition after 72 hrs by LDH assay. Format: functional, organism-based. Particulars: FCR3, 72 h.
Experiment [3] relates to Plasmodium falciparum. The experiment can be described thus: Antimalarial activity against chloroquine-resistant Plasmodium falciparum K1 infected in human type A+ erythrocytes assessed as growth inhibition after 72 hrs by LDH assay. The format is functional, organism-based. Particulars: K1, 72 h.
Experiment [4] has as its system Plasmodium falciparum. The experiment can be described thus: Antimalarial activity against Plasmodium falciparum FcB1. Particulars: FcB1/Columbia. Format: functional, organism-based.
The test system of experiment [5] is Plasmodium falciparum. Put plainly: Antimalarial activity against Plasmodium falciparum 3D7. The format is functional, organism-based.

Chain of Sarcoplasmic/endoplasmic reticulum calcium ATPase 1 (O14983 whole entry): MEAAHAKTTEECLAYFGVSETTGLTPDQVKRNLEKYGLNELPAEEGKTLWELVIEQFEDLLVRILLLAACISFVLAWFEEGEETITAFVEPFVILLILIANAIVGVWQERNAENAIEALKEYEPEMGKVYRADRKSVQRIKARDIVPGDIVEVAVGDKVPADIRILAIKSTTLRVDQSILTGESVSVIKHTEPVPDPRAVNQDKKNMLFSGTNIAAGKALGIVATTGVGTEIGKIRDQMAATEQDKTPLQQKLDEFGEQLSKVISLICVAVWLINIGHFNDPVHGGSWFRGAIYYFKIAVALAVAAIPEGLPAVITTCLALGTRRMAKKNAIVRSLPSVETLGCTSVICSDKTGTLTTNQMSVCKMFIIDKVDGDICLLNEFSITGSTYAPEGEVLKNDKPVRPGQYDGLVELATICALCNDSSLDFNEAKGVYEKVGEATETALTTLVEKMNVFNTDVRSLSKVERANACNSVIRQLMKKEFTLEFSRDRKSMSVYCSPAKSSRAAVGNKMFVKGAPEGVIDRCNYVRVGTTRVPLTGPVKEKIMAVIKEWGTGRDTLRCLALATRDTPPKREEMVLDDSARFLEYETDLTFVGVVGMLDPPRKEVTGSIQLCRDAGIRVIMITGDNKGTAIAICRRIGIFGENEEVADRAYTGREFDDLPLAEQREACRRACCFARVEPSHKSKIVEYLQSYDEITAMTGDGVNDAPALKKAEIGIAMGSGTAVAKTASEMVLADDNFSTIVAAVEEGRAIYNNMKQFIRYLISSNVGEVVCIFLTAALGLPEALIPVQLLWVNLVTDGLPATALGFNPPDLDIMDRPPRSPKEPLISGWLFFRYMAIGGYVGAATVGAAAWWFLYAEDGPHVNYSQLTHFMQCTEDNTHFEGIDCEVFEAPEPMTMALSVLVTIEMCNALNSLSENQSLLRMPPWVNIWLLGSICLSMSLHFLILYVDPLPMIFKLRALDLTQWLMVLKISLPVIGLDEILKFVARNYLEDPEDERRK

Usually pKi stands for −log10 of the Ki, conventionally taken in molar units. One may read the pIC50 as the negative decadic logarithm of the IC50, by convention in mol/L. `C/C=C/C/C(C)=C\[C@H]1C/C=C/C=C/C[C@H](C)/C=C(\C)[C@@H](OC)C/C=C/[C@@H](O)CC(=O)O1`: the pKi in experiment [1] was 7.77. The pIC50 with HeLa was 8.55; in the experiment on MRC5, 6.64; in the experiment on Plasmodium falciparum [2], 4.63; in the experiment on Plasmodium falciparum [3], 4.62.

`CO[C@H]1C/C=C/[C@@H](O)CC(=O)O[C@@H](/C=C(/C)CO)C/C=C/C=C/C[C@H](C)/C=C/1C`: the pIC50 was less than 4.52 in the experiment on HeLa, 4.72 in the experiment on MRC5, 4.62 in the experiment with Plasmodium falciparum [2] and less than 4.51 with Plasmodium falciparum [3].

As for `C/C=C(/C)C(=O)O[C@H]1C(C)=C2[C@H]([C@@H]1OC(=O)CCCCCCC)[C@@](C)(OC(C)=O)C[C@H](OC(=O)CCC)[C@@]1(O)[C@H]2OC(=O)[C@@]1(C)O` [THAPSIGARGIN], the pKi in experiment [1] was 10.00.

With `CO[C@H]1C/C=C/[C@@H](O)CC(=O)O[C@@H](/C=C(/C)CNC(C)=O)C/C=C/C=C/C[C@H](C)/C=C/1C`, the negative logarithm of the IC50 (pIC50) was 5.31 with HeLa, 5.52 in the experiment on MRC5, 4.85 in the experiment with Plasmodium falciparum [2] and 4.72 with Plasmodium falciparum [3].

With `CCNC(=O)/C(C)=C\[C@H]1C/C=C/C=C/C[C@H](C)/C=C(\C)[C@@H](OC)C/C=C/[C@@H](O)CC(=O)O1`, the pIC50 with HeLa was 5.04; with MRC5, 5.54; in the experiment with Plasmodium falciparum [2], 4.77; with Plasmodium falciparum [3], 4.80.

Regarding `CC(=O)C1=C(O)[C@@H]2[C@H]3c4c[nH]c5cccc(c45)C[C@H]3C(C)(C)N2C1=O` [CYCLOPIAZONIC ACID], the pKi in experiment [1] was 5.74. In addition, the pIC50 was 5.31 in the experiment on Plasmodium falciparum [4] and 5.06 with Plasmodium falciparum [5].

In the case of `C/C=C/C/C(C)=C\[C@H]1C/C=C/C=C/C[C@H](C)/C=C(\C)[C@@H](OC)C/C=C/[C@@H](O[C@@H]2O[C@H](CO)[C@@H](O)[C@H](OC)[C@H]2O)CC(=O)O1`, the pKi in experiment [1] was 7.72. Also, the pIC50 in the experiment on HeLa was 5.60; in the experiment with MRC5, 6.40; in the experiment on Plasmodium falciparum [2] it was 5.36; in the experiment on Plasmodium falciparum [3] it was 5.47.
